Assay results taken from patent EP3753563A1, “ANTI-HERPESVIRUS GUANOSINE ANALOGUE FOR THE INHIBITION OF BASAL AUTOPHAGY” (Helmholtz-Zentrum für Infektionsforschung GmbH, priority 2019, dated 2020).

What was measured:
[1] = test system: 3T3 fibroblasts harbor a RFP-GFP-LC3B tandem reporter construct; test: RFP-GFP-LC3B tandem reporter analysis of autophagic flux; assay type: cell-based, mouse; details: for mode of autophagy modulation: mouse 3T3 fibroblasts
Procedure: (§1) For the single reporter analyses of figure 1 A549 stably transduced with a retroviral GFP LC3 fusion vector were used, for the tandem reporter analyses of figure 2 NIH mouse fibroblasts stably transduced with a retroviral RFP-GFP-LC3B fusion construct were employed. Cells were seeded on 96-well plates at a density of 3.5 x 10^4 cells per well in 100 µL of their respective growth medium (DMEM for NIH3T3 and F-12K for A549, respectively). The plates were left at room temperature for one hour without moving them to guarantee an even distribution of the cells on the well bottom and then cultured over night at 37 °C and 5% CO2.
(§2) On the next day, compounds were added at the appropriate concentration in either 100 µL of their normal fed medium or 100 µL of Hank's balanced salt solution (HBSS) to induce starvation and then cultured at 37 °C and 5% CO2 for 3 h or 1.5 h respectively. Subsequently, cells were carefully washed once with phosphate buffered saline (PBS), fixed in 4% formaldehyde for 20 min at room temperature and washed again twice with PBS. Nuclear staining was performed using 0.05% Hoechst 33342 solution in PBS for 10 min at room temperature.
(§3) After another two times of washing in PBS, cells could be stored in PBS at 4 °C and were ready for measurement with the automatic fluorescence microscope (ImageXpress Micro XLS Widefield High-Content Imaging system). For each well, images at nine different sites were taken automatically (60x objective, magnification 600x). Exposure times were 150 ms for DAPI, 1000 ms for FITC (single reporter LC3) and 150 ms for DAPI, 1000 ms for FITC, 5000 ms for Texas Red (tandem reporter analysis).
NIH/3T3 cells stably expressing RFP-GFP-LC3 were treated to induce or inhibit autophagy (for control) and with the compound in question and taken for image acquisition (described above). Between 120-160 cells were analyzed in each quantification for vesicular, red spot numbers and colocalization of punctate red/green signals using the Gen5 software package (BioTek). Average values are shown.
In this assay, red spot numbers correlate with total LC3 autophagic particles, yellow colocalization parallels the number of autophagosomes/phagophores.

[2] = test system: A549 GFP-LC3B reporter cells; test: High-content GFP-LC3B puncta analysis in fed or starved A549 reporter cells; assay type: cell-based, human
Procedure: as §1, §2
as §3, with “Exposure times were 150 ms for DAPI, 1000 ms for FITC (single reporter LC3) and 150 ms for DAPI, 1000 ms for FITC, 5000 ms for Texas Red (tandem reporter analysis).” left out
Duplicate samples were analyzed comprising 500-1000 cells/well, which represents a coverage of at least 2%/well. Analyses were performed using the Transfluor modul of MetaXpress 6 software (Molecular Devices) with the following settings: vesicle width 0.5 µm - 5 µm and necessary intensity above local background 2000 gray levels determined from the FITC or 500 gray levels determined from the Texas Red image. Size of nuclei 5 µm - 30 µm and necessary intensity above local background 2000 gray levels determined from the DAPI image.

[3] = test system: wt and mutant ATG4D^G1288A Lagotto Romagnolo dog fibroblasts; test: LC3 Western blot of basal and induced autophagy in dog fibroblasts (NVSD model); assay type: cell-based
Procedure: Induction (starvation in Earle's Balanced Salt Solution (EBSS)) increases autophagy activity, as detected by formation of the marker LC3-II. Since autophagy consists of several steps and the last one is a degradation step, a block must be set in order to assess the proportion of the synthesis/maturation step more precisely. To this end, Bafilomycin A1 (BafA1) is added to the cells. BafA1 inhibits the fusion of autophagosomes to autolysosomes and then the degradation of the vesicle content. The comparison +/- Baf A1 is used to measure the autophagy flux. Since BafA1 inhibits the degradation of vesicle contents, LC3-II determination in WBs can be used to determine the rate of autophagosome production/maturation (corresponding to the early to middle part of the autophagy process) and the rate of autolysosomal degradation (late phase), i.e. the total degradation capacity.
A reference sample was loaded onto each gel to compare the results of different gels. The reference sample consists of WT cells grown in full medium conditions without any treatment. Graphs show expression levels of LC3-II normalized to the loading control (tubulin) and the reference sample and represent mean + SEM.
Fibroblasts from affected dogs and age-, breed-, and sex-matched controls were cultured in high glucose Dulbecco's Modified Eagle Medium (DMEM 41965-039 Gibco) with 10% fetal bovine serum (FBS 10500056 Gibco) and penicillin-streptomycin (PenStrep15140122 Gibco). During second or third passages, cells were seeded at equal density onto Petri dishes and additionally onto glass cover slips. […] Beta actin was used as the loading control for relative quantification of the blots (anti-beta Actin PA5-16914 Thermo Fischer Scientific). Signals were visualized by enhanced chemiluminescence and further analyzed by densitometry. […]

HSV = details: read-out: EC 50 concentration for HSV inhibition; cited from earlier work

| Compound | mode of autophagy modulation [1] | total LC3 containing autophagic particle numbers compared to the control ([1]; red spot numbers, 2 µM Chloroquine, 120-160 cells) | reduction of LC3 fluorescence compared to the control ([2]; fed A549 cells, vesicular GFP 3h after treatment) | amount of membrane-bound GFP-LC3 compared to the control ([2]; fed cells (basal autophagy), 3 h, LC3-positive vesicle area per cell) [%] | inhibition of induced autophagy ([2]; starved cells, 1.5 h) | reduction of the number of autolysosomes ([1]; calculated by subtraction) [fold] | reduction of total autophagic particle numbers ([1]; compared to the control) [%] | autophagosome/phagophores ([1]; yellow colocalization) | LC3-II levels of basal autophagy ([3]; mutant LR cells, 1 µM A2, two hours, with BafA1) | LC3 levels induced by starvation ([3]; starvation in EBSS, 1 µM A2 (lanes 4 and 8)) | LC3 I ([3]; treated mutant cells, Western blot lanes 5 DMSO and A2) | EC50 (HSV) [nM] |
| --- | --- | --- | --- | --- | --- | --- | --- | --- | --- | --- | --- | --- |
| CCN(CC)CCCC(C)Nc1ccnc2cc(Cl)ccc12 (stereo not shown) [Chloroquine] | late inhibition | increased |  |  |  |  |  |  |  |  |  |  |
| CC(=O)OCC(CCn1cnc2cnc(N)nc21)COC(C)=O [Famciclovir] |  |  | 2 -fold |  |  |  |  |  |  |  |  |  |
| Nc1nc2c(ncn2COCCO)c(=O)[nH]1 [compound A2, aciclovir] | early inhibition of autophagy |  |  | 60 | does not inhibit induced autophagy | 4 | 40 | slight increase | diminishes LC3-II levels of basal autophagy in mutant LR cells to level observed in wt cells | nearly unaltered | less LC3 I seems to be present | 1300 |
